ChEMBL document CHEMBL3507680, “University of Dundee, Gates Library screen for HepG2 cell viability”

Experiment: Human HepG2 cell viability assay in 384 well format
Format: toxicity, cell-based
Set-up: dose 125 nL, time 70.5 hour; concentration not given beside the values
Conditions: HepG2 cells, read-out: Inhibition

Row | SMILES | cytotoxicity at 70.5 h [%]
1 | Cc1ccc(C(=O)NCCNC(=O)c2cncnc2C)cc1F | -11.3
2 | CCCNC(=O)CNc1cc(C(=O)NCC(F)(F)F)cc(F)c1C | -6.37
3 | COc1ccc(C(=O)NCCNC(=O)c2cncnc2C)cc1 | -8.47
4 | N#Cc1ccc(N2CCCC2Cn2cccn2)nc1 (configuration not stated) | -8.46
5 | CCNC(=O)NCc1ccccc1NS(=O)(=O)c1ccccc1 | -10.5
6 | CCc1nccn1C1CCCN(C(=O)c2ccn(C)c(=O)c2)C1 (configuration not stated) | -0.0555
7 | CCNC(=O)NCc1cccc(N2CC=CC2)c1 | 1.58
8 | CCNC(=O)NC(C)(C)C(=O)NCc1cccc(N2CC=CC2)c1 | 2.33
9 | CCNS(=O)(=O)C1CCN(C(=O)c2ccc(F)cc2)C1 (configuration not stated) | 1.22
10 | CCNS(=O)(=O)C1CCN(C(=O)c2c(F)cc(F)cc2F)C1 (configuration not stated) | -2.04
11 | CN(Cc1ccncc1)Cc1nccn1Cc1ccccc1 | -5.12
12 | CCC(C)(NCC(=O)NC(C)C)c1nccs1 (configuration not stated) | -3.03
13 | CC(=O)N1CCN(CC(=O)NCCCN(C)c2ccccc2)CC1 | -7.53
14 | Cc1cnn(CC2CCCN2c2ccc(C#N)cn2)c1 (configuration not stated) | 6.54
15 | COc1ccc(CNC(=O)N2CCOCC2C2CC2)cc1C (configuration not stated) | -3.69
16 | CCc1nsc(N2CCN(CC(=O)Nc3c(C)n[nH]c3C)CC2)n1 | 2.39
17 | COCCCN1CCC(NC2CSCCc3ccccc32)CC1 (configuration not stated) | 2.22
18 | CCN(CC(F)(F)F)C(=O)C1CCCN(Cc2ccccn2)C1 (configuration not stated) | -3.97
19 | CCC1CN(Cc2c(O)ccc3oc4c(c23)CCCC4)CCO1 (configuration not stated) | 8.92
20 | O=C(CCNc1ncccn1)NCc1cccc(OC(F)F)c1 | -11.7
21 | CNS(=O)(=O)CC(=O)N1CC2(CCCC2)c2c(F)cccc21 | 0.789
22 | COc1ccc2cccc(CC(=O)NCc3n[nH]c(=O)[nH]3)c2c1 | -1.52

Row | SMILES | cytotoxicity at 70.5 h [%]
23 | COc1ccc2cccc(CC(=O)NCc3nccc(N)n3)c2c1 | -2.39
24 | CCOCc1nnc(NCc2ccsc2)o1 | -3.37
25 | c1cc(CNc2nnc(Cc3ccsc3)o2)cs1 | -8.44
26 | c1coc(CNc2nnc(Cc3ccsc3)o2)c1 | -3.55
27 | CC(C)Cc1nnc(NCc2ccsc2)o1 | -5.09
28 | CCN(CC(=O)N(C)C)C(=O)C(C)(C)c1ccc2c(c1)OCCO2 | -8.05
29 | COc1ccccc1NCC(=O)NCc1ccc(-c2ccn[nH]2)cc1 | -4.94
30 | CCn1ncc2c1CCCC2NCc1cscn1 (configuration not stated) | -5.01
31 | Cc1nc(CN2CCN(C(C)C(=O)NC3CCCC3)CC2)cs1 (configuration not stated) | -5.82
32 | Cc1ccc(C(=O)NC(CN2CCCC2)c2ccccc2)c(=O)[nH]1 (configuration not stated) | -3.04
33 | COc1ccc(F)cc1CSCC(=O)N(C)CCC#N | 0.901
34 | COc1cc(F)ccc1N(C)Cc1cccnc1 | 15.7
35 | CCOCc1ccccc1NC(=O)NCC(C)(O)c1cccs1 (configuration not stated) | -1.02
36 | Cc1cc(NCC(=O)N(C)C)c(C(N)=O)cc1F | -0.553
37 | CC(C)(C)c1nccc(N2CCN(C3CCS(=O)(=O)C3)CC2)n1 (configuration not stated) | -0.27
38 | CCN1CCN(CCC(=O)NC2CC(c3cccc(Cl)c3)C2)CC1 (configuration not stated) | 3.15
39 | Cc1ccc(N2CCCC(NC(=O)CCc3ccccn3)C2=O)cc1 (configuration not stated) | 0.525
40 | Cc1ccc(N2CCCC(NC(=O)C(C)(C)C#N)C2=O)cc1 (configuration not stated) | 1.69
41 | CC(C)Cn1cnnc1C1CCCN1C(=O)c1cc2ccccn2c1 (configuration not stated) | 14.5
42 | CS(=O)(=O)CCC(=O)NC1CC(c2ccccc2Cl)C1 (configuration not stated) | 2.56
43 | COc1ccccc1C(=O)N1CCCC1c1nncn1CC(C)C (configuration not stated) | -0.719
44 | Cc1cc(NCC2CC(=O)Nc3ccccc32)nc(C)n1 (configuration not stated) | -1.89

Row | SMILES | cytotoxicity at 70.5 h [%]
45 | Cc1nc(C)c(C)c(N2CCC(NCCOc3ccccc3)CC2)n1 | 17.8
46 | Cc1ncc2c(n1)CN(C(C(N)=O)c1ccc(F)cc1)CC2 (configuration not stated) | -2.82
47 | COc1ccc(N(C(=O)c2cnc(C)cn2)C(C)C)cc1F | -3.96
48 | Cc1cnn(-c2cccc(N3CCN(c4cc(C)nc(C)n4)CC3)n2)c1 | 15.5
49 | N#Cc1cnc2ccccc2c1N1CCN(C(=O)C2CCC2)CC1 | -1.5
50 | COc1ccc(N(C(=O)c2ccccn2)C(C)C)cc1F | -3.02
51 | CNC(=O)CN(C)C(=O)Cc1csc(C(C)C)n1 | 0.629
52 | COc1cccc2c1N(Cc1nc(C3CC3)no1)CCC2 | 5.14
53 | CC(C)C(NC(=O)c1ccccc1F)C(=O)N1CCC2(CC1)OCCO2 (configuration not stated) | -1.01
54 | COc1ccc2c(c1)C(=O)N(C)C1(CCN(CC=C(C)C)CC1)N2 | -2.27
55 | COCc1ccccc1C(=O)N1CCn2c(nnc2C(C)C)C1 | -3.21
56 | CC(C)C(O)CNC(=O)Nc1ccc(F)c(Cl)c1 (configuration not stated) | -0.302
57 | COc1ccccc1N1CCCC(Nc2nccnc2C#N)C1 (configuration not stated) | -6.29
58 | N#Cc1nccnc1NC1CCN(c2ccccc2OC(F)F)C1 (configuration not stated) | -5.2
59 | CCn1cc(C(=O)Nc2ccc(C)cc2C(=O)OC)cn1 | 16
60 | CCn1cc(C(=O)Nc2ccc(C)cc2C(=O)NC)cn1 | -3.07
61 | N#Cc1ccc(NCCC2CCN(CC(F)(F)F)CC2)nc1 | 2.24
62 | FC(F)c1nnc2ccc(N3CCC4(CCOC4)C3)nn12 (configuration not stated) | 7.83
63 | COc1ccccc1S(=O)(=O)CCOC(C)C | -3.27
64 | Cc1ccc(OCCN(C)Cc2cscn2)cc1 | -2.46
65 | COCCc1noc(CN2CCCc3cccc(OC)c32)n1 | -4.64
66 | COc1cccc(NC(=O)N(CCO)C2CCc3ccccc32)c1 (configuration not stated) | -0.598

Row | SMILES | cytotoxicity at 70.5 h [%]
67 | Cc1ccc(CCNC(=O)c2cccnc2)o1 | 30.2
68 | Cc1cccc(N(CCC(N)=O)C(=O)c2cnccn2)c1 | -12.9
69 | CC(=O)N1Cc2ccccc2CC1C(=O)Nc1cc(C)ccn1 (configuration not stated) | -15.2
70 | CC(=O)N1Cc2ccccc2CC1C(=O)Nc1ccc(N(C)C)cn1 (configuration not stated) | -24.9
71 | CC(=O)c1cccc(NC(=O)N(CCO)C2CCc3ccccc32)c1 (configuration not stated) | 26.8
72 | O=C(Nc1cn[nH]c1)N(CCCO)C1CCc2ccccc21 (configuration not stated) | -4.28
73 | Cc1cc(CNC(=O)N2CCOC(c3ccccc3Cl)C2)no1 (configuration not stated) | -7.66
74 | CN1CCN(C)C(CNc2c(C#N)cnc3ccc(Cl)cc23)C1 (configuration not stated) | -8.13
75 | Cc1ccc(Br)cc1C(=O)Nc1cc(C(N)=O)n(C)c1 | -8.22
76 | COCCC(=O)Nc1nc2c(OC)cc(F)cc2s1 | -4.65
77 | CCC1COCCN1C(=O)NCc1nccn1Cc1ccccc1 (configuration not stated) | -2.58
78 | CC(C)Cn1ccnc1CNC(=O)N1CCCC1CN1CCOCC1 (configuration not stated) | -4.49
79 | CCC1c2ccccc2CCN1CCNS(C)(=O)=O (configuration not stated) | -4.6
80 | CCCC1c2ccccc2CCN1CCS(C)(=O)=O (configuration not stated) | -3.74
81 | CC(Cc1cccc(F)c1)NCc1cnc(N2CCN(C)CC2)nc1 (configuration not stated) | 9.92
82 | CC(C)N(Cc1ccccn1)C(=O)CCC(=O)c1ccc(F)cc1F | -14.3
83 | CN(C)C(=O)CN1CCN(c2cc(N3CCCC3CO)ncn2)CC1 (configuration not stated) | -4.56
84 | CCc1nc(C2CCCN2Cc2ncc(C)c(OC)c2C)no1 (configuration not stated) | -5.08
85 | CN1CCN(C(=O)c2occc2CN2C(=O)Cc3ccccc32)CC1 | 16
86 | CCc1noc(CN(CCS(C)(=O)=O)C(C)(C)C)n1 | 20.2
87 | CCC(C)(N)c1nc(C(C)C)cc(=O)[nH]1 (configuration not stated) | -4.71
